Results published in paper PMC6005845 (Frontiers in Cardiovascular Medicine, 2018).
Read-outs that look alike come from different tables or passages of the source. One block for each compound: values may come before it.

Columns and labels:
[1] = Pharmacokinetic analysis and plasma drug concentrations (LC-MS/MS); format: in vivo, APOE*3Leiden.CETP mice; conditions: APOE*3Leiden.CETP, mouse, plasma; for AUC(0-t): read-out: AUC0–24
Protocol: Animal experiments were approved by the Institutional Animal Care and Use Committee of The Netherlands Organization for Applied Research under registration number 3557.
PK analysis and plasma drug concentrations
EDTA plasma samples collected during the 24-hour PK study and at week 16 of the (cardio)vascular risk factor-atherosclerosis study were subsequently stored at -80°C until analysis. Thawed plasma samples (50μL) were de-proteinized with two volumes of acetonitrile containing an appropriate src-inhibitor chemotype as internal standard for each analyte.
Following deproteinization, a 5μL portion of clear supernatant was then subjected to solvent gradient separation in an Agilent 1100 series HPLC system interfaced to a Micromass triple-quadrupole mass spectrometer, which was operated in the positive ion electrospray MRM mode to obtain daughter ions for quantitation: Ion transitions used for quantitation were as follows: […]
curves ranging from 1 nM to 6 uM were fitted with a quadratic regression weighted by reciprocal concentration (1/x). LLOQ for the purposes of this assay was between 1 and 2 nM for all compounds analyzed. QC samples at three levels in the range of the standard curve were used to accept individual analytical sets, and all results were calculated as the mean of triplicate determinations ± standard error. Tmax, Cmax and AUCs were calculated using the software Berkeley Madonna (version 8.3.18). […]

[2] = test system: MCP-1; experiment: Plasma MCP-1 ELISA; format: in vivo, APOE*3Leiden.CETP mice; conditions: for MCP-1: after 16 weeks of treatment; for change of MCP-1 relative to baseline (T = 0 weeks): p < 0.001
From the text: (§1) Pouwer et al Supplementary material […]
The inflammatory markers SAA, E-selectin and MCP-
according to the manufacturer’s instruction. […]

[3] = test system: APOE*3Leiden.CETP mice; experiment: Histological assessment of atherosclerosis (lesion area, number, severity) in the aortic root; format: in vivo; conditions: 16 weeks
Protocol: Significance of differences between the groups was calculated in SPSS 22.0 for Windows. Normally distributed data was tested parametrically using a one-way ANOVA for multiple comparisons with a Dunnett’s post-hoc test. Non-parametric data were compared separately with a Mann-Whitney U test with adjusted rejection criteria using a Bonferroni-Holm correction. Correlations between lesion size (after square root transformation) and cholesterol exposure were calculated with a Pearson’s correlation test. All groups were compared with the control group. Values are presented as means ± SD and p-values < 0.05 were considered statistically significant.
Pouwer et al Supplementary material
Dickinson, Franklin Lakes, New Jersey, USA). […]
Histological assessment of lung morphology and atherosclerosis […]
The caudal lung was cross […]
direction of the aortic arch. […]
(§2) valve leaflets and smooth muscle cells instead of collagen-rich tissue, serial cross sections (5 µm thick with intervals of 50 µm) were taken and mounted on AAS-coated slides. These sections were stained with hematoxylin-phloxine-saffron (HPS) for histological analysis. For each mouse, atherosclerosis was measured in 4 subsequent cross sections. Each section consisted of 3 segments. The average total lesion area per cross section was then calculated20
(§3) 22. For determination of lesion severity the lesions were classified into five categories according to the American Heart Association classification 23: 0) no lesion I) early fatty streak, II) regular fatty streak, III) mild plaque, IV) moderate plaque, and V) severe plaque. The percentage of each lesion type was calculated, where type I-III lesions were classified as mild lesions and type IV-V lesions were classified as severe lesions 20 22. In the aortic root, lesion composition was determined for the severe lesions (type IV -V) as a percentage of lesion area after immunostaining with anti-human alpha-actin (1:400; PROGEN Biotechnik GmbH, Germany) for smooth muscle cells (SMC), and anti -mouse Mac-3 (1:50; BD Pharmingen, the Netherlands) for macrophages followed by Sirius Red staining. After Sirius Red staining for collagen, color intensity was determined in ImageJ and the used threshold was confirmed by evaluation of the sections under polarized light 24. Necrotic area and cholesterol clefts were measured after HPS staining13 20 22. Lesion stability index was calculated as described pre viously13 20. In each segment used for lesion quantification, the number of monocytes adhering to the endothelium were counted after immunostaining with AIA 31240 antibody (1:1000; Accurate Chemical and Scientific, New York, New York, USA) 14 20. […]

[4] = test system: AST; experiment: Plasma AST (pooled samples); conditions: after 16 weeks
[5] = test system: ALT; experiment: Plasma ALT (pooled samples); conditions: after 16 weeks
[6] = test system: APOE*3Leiden.CETP mice; experiment: Plaque composition and lesion stability index in severe (type IV-V) lesions; format: in vivo; conditions: 16 weeks
Protocol: The macrophage and necrosis content were quantified as factors that decrease plaque stability, and smooth muscle cell area in the cap of the lesions and collagen as factors that improve plaque stability ([17, 35, 36]) (Figure 6A). […]
as §2, with “µm” for “valve leaflets and smooth muscle cells instead of collagen-rich tissue, serial cross sections (5 µm”
as §3, with “20.” for “20. In each segment used for lesion quantification, the number of monocytes adhering to the endothelium were counted after immunostaining with AIA 31240 antibody (1:1000; Accurate Chemical and Scientific, New York, New York, USA) 14 20.”

[7] = test system: APOE*3Leiden.CETP mice; experiment: Blood pressure and heart rate (tail cuff); format: in vivo; conditions: after 2 and 15 weeks of treatment, all dose groups, vs control
From the text: as §1

[8] = po, repeated dose, QD, 3 mg/kg, after 16 weeks
[9] = po, repeated dose, QD, 10 mg/kg, after 16 weeks
[10] = po, repeated dose, BID, 150 mg/kg, after 16 weeks
[11] = po, repeated dose, QD, 30 mg/kg, after 16 weeks

SMILES: Cc1ccc(C(=O)Nc2ccc(CN3CCN(C)CC3)c(C(F)(F)F)c2)cc1C#Cc1cnc2cccnn12 [Ponatinib, ponatinib]
Cmax [1, 8]: 0.14 µg/mL
Tmax [1, 8]: 6.72 h
AUC(0-t) [1, 8]: 2.43 µg·h/mL
Cmax [1, 9]: 0.46 µg/mL
Tmax [1, 9]: 6.73 h
AUC(0-t) [1, 9]: 8.11 µg·h/mL
Cmax ([1]; single oral gavage, 5 mg/kg): 0.19 µg/mL
Tmax ([1]; single oral gavage, 5 mg/kg): 8 h
AUC(0-t) ([1]; single oral gavage, 5 mg/kg): 3.24 µg·h/mL
MCP-1 ([2]; 3 mg/kg QD): 78 ± 29 pg/mL
MCP-1 ([2]; 10 mg/kg QD): 92 ± 68 pg/mL
reduction of atherosclerotic lesion area per cross-section vs control ([3]; 3 mg/kg QD, p = 0.002): 52%
change of lesion severity, mild lesions (type I-III) ([3]; 10 mg/kg QD, p < 0.01 (Figure 4B)): +64%
reduction of atherosclerotic lesion area per cross-section vs control ([3]; 10 mg/kg QD, p = 0.006): 48%
AST ([4]; 3 mg/kg): 196 U/L
AST ([4]; 10 mg/kg): 207 U/L
ALT ([5]; 3 mg/kg): 44 U/L
ALT ([5]; 10 mg/kg): 31 U/L
effect on plaque stability ([6]; 3 mg/kg): without affecting plaque stability
change of necrotic core content vs control ([6]; 3 mg/kg, p = 0.001): −58%
effect on heart rate [7]: not affected
effect on systolic blood pressure (SBP) [7]: not affected

Cmax [1, 10]: 11.1 µg/mL
Tmax [1, 10]: 2.47 h
AUC(0-t) [1, 10]: 78.1 µg·h/mL
Cmax ([1]; single oral gavage, 100 mg/kg): 5.29 µg/mL
Tmax ([1]; single oral gavage, 100 mg/kg): 2.28 h
AUC(0-t) ([1]; single oral gavage, 100 mg/kg): 32.8 µg·h/mL
MCP-1 ([2]; 150 mg/kg BID): 54 ± 44 pg/mL
SMILES: Cc1ccc(NC(=O)c2ccc(CN3CCN(C)CC3)cc2)cc1Nc1nccc(-c2cccnc2)n1 [Imatinib, imatinib]
effect on plasma MCP-1 ([2]; 150 mg/kg BID, 16 weeks): None of the inflammatory markers were significantly altered
change of total lesion area that consisted of severe (type IV–V) lesions vs control ([3]; 150 mg/kg BID, p < 0.001): −56%
reduction of atherosclerotic lesion area per cross-section vs control ([3]; 150 mg/kg BID, p < 0.001): 78%
AST ([4]; 150 mg/kg BID): 147 U/L
ALT ([5]; 150 mg/kg BID): 31 U/L
increase of collagen content of severe lesions vs control ([6]; 150 mg/kg BID, p = 0.004): 47%
change of αSMC content vs control ([6]; 150 mg/kg BID, p = 0.050 (tended to increase)): +38%
collagen content (percentage of total plaque area) ([6]; 150 mg/kg BID, type IV-V lesions): 62 ± 17%
effect on heart rate [7]: not affected
effect on systolic blood pressure (SBP) [7]: not affected

Cmax [1, 9]: 2.3 µg/mL
Tmax [1, 9]: 3.17 h
AUC(0-t) [1, 9]: 24.6 µg·h/mL
Cmax [1, 11]: 6.89 µg/mL
Tmax [1, 11]: 3.17 h
AUC(0-t) [1, 11]: 73.8 µg·h/mL
Cmax ([1]; single oral gavage, 50 mg/kg): 11 µg/mL
Tmax ([1]; single oral gavage, 50 mg/kg): 3.26 h
AUC(0-t) ([1]; single oral gavage, 50 mg/kg): 117 µg·h/mL
change of MCP-1 relative to baseline (T = 0 weeks) ([2]; 10 mg/kg QD, 16 weeks): +220%
MCP-1 ([2]; 10 mg/kg QD): 144 ± 82 pg/mL
change of MCP-1 relative to baseline (T = 0 weeks) ([2]; 30 mg/kg QD, 16 weeks): +160%
MCP-1 ([2]; 30 mg/kg QD): 117 ± 60 pg/mL
SMILES: Cc1cn(-c2cc(NC(=O)c3ccc(C)c(Nc4nccc(-c5cccnc5)n4)c3)cc(C(F)(F)F)c2)cn1 [Nilotinib, nilotinib]
effect on atherosclerotic lesion area ([3]; 10 and 30 mg/kg QD): not affected
AST ([4]; 10 mg/kg): 210 U/L
AST ([4]; 30 mg/kg): 221 U/L
ALT ([5]; 10 mg/kg): 64 U/L
ALT ([5]; 30 mg/kg): 81 U/L
change of collagen content vs control ([6]; 10 mg/kg, p = 0.003): −32%
change of lesion stability index vs control ([6]; 10 mg/kg, p = 0.003): −43%
effect on heart rate [7]: not affected
effect on systolic blood pressure (SBP) [7]: not affected
